Experiments:
[1] = target: hematopoietic prostaglandin D synthase (H-PGDS) (Homo sapiens, UniProt O60760); conditions: disclosed in Patent Document 1; cited from earlier work
[2] = Dynamic vapor sorption (DVS) system analysis (moisture adsorption-desorption test); format: physicochemical; conditions: 25° C., 5% to 95% RH
Description: Dynamic vapor sorption (DVS) system analysis was performed under the following conditions.
Device: VTI SGA-100, TA Instruments
Sample: about 10 mg Measurement temperature: 25° C. RH steps: 5-95-1% RH by 5% RH
Hygroscopic properties of crystals I and II obtained in the Examples were confirmed by dynamic vapor sorption (DVS) system analysis.
The adsorption and desorption data was collected at 5% RH intervals in a range of relative humidity (RH) of 5% to 95%. Before the measurement, the samples were heated under nitrogen purging to 25° C. at 1° C./min, followed by drying for up to 6 hours until the weight change in 5 minutes became less than 0.0100%. The measurement was performed with equilibration for up to 2 hours until the weight change in 5 minutes became less than 0.0100%.

[3] = Solid stability test (under exposure to light); format: physicochemical; conditions: for Change of crystal form (powder X-ray crystal analysis): room temperature, after irradiation at 3500000 lux·h (2000 lux×1750 h)
Description: Using crystals I and II obtained in the Examples, the solid stability after storage under exposure to light was measured.
Storage conditions: crystal I was stored at room temperature under exposure to light after being placed in a transparent glass dish covered with a lid. Measurement point: after irradiation at 3500000 lux·h (irradiation at 2000 lux×1750 h)
Storage Container: Transparent Glass Dish
The powder X-ray diffraction upon the storage stability test was measured after an appropriate amount of the test substance was lightly pulverized as necessary using an agate mortar under the following test conditions.
Device: MiniFlex II, Rigaku Corporation
X-ray output power: 15 mA, 30 kV Scanning range: 3.0 to 40.0° Step size: 0.010° Scanning speed: […]. Divergence slit: 1.25° Scatter slit: open Receiving slit: open

[4] = Solid stability test (40° C., under light shielding), chemical purity by HPLC; format: physicochemical
Description: Using crystal I obtained in the Examples, the solid stability after storage at 40° C. under light shielding was measured.
Storage conditions: crystal I was stored at 40° C. after being placed in a light shielding bottle covered with a lid. Measurement points: after 1 month, after 3 months, after 6 months
The amount of analog in the sample solution was measured by HPLC analysis. Handling of the device, including data processing, was performed in accordance with the method and procedures specified for each device (device: 2130-2450, HITACHI).
Column: Mightysil RP-18 GP 150-4.6 (5 μm)
UV detection: 220 nm Column temperature: 40° C. Column flow rate: 1.0 mL/min Mobile phase: A: acetonitrile, B: 10 mM phos. buffer

Sequence of hematopoietic prostaglandin D synthase (H-PGDS) (O60760 whole entry): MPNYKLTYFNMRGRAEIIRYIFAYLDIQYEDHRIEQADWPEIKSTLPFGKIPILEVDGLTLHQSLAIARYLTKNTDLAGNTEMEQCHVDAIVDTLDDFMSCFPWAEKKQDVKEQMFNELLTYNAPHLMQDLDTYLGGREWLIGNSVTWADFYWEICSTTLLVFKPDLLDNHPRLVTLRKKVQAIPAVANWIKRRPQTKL

Change in weight due to changes in humidity [2]	Powder X-ray crystal analysis before and after moisture adsorption and desorption [2]	Chemical purity after long-term storage under exposure to light [3]	Change of crystal form (powder X-ray crystal analysis) [3]	Chemical Purity (%) ([4]; After 1 month at 40° C. under light shielding)	Chemical Purity (%) ([4]; After 3 months at 40° C. under light shielding)	Chemical Purity (%) ([4]; After 6 months at 40° C. under light shielding)	Chemical Purity (%) ([4]; Initial Value, before storage)	Change of chemical purity after storage ([4]; storage at 40° C. under light shielding)	Structure (SMILES)	H-PGDS inhibiting effect [1]
									Cn1cccc1C(=O)N1CCN(C(=O)Nc2ccc(N3CCC(C(=O)N4CCOCC4)CC3)cc2)CC1 [Compound (1), 4-((1-methylpyrrol-2-yl)-carbonyl)-N-(4-(4-morpholin-1-yl-carbonylpiperidin-1-yl)-phenyl)-1-piperazinecarboxamide]	inhibiting effect
great change in weight	not changed	not decreased	changed						Cn1cccc1C(=O)N1CCN(C(=O)Nc2ccc(N3CCC(C(=O)N4CCOCC4)CC3)cc2)CC1 [crystal II, 4-((1-methylpyrrol-2-yl)-carbonyl)-N-(4-(4-morpholin-1-yl-carbonylpiperidin-1-yl)-phenyl)-1-piperazinecarboxamide]	
no changes in weight	not changed	not decreased	not changed	99.8%	99.6%	99.9%	99.8%	not changed	Cn1cccc1C(=O)N1CCN(C(=O)Nc2ccc(N3CCC(C(=O)N4CCOCC4)CC3)cc2)CC1 [crystal I, monohydrate of 4-((1-methylpyrrol-2-yl)-carbonyl)-N-(4-(4-morpholin-1-yl-carbonylpiperidin-1-yl)-phenyl)-1-piperazinecarboxamide]	

— patent publication US20180258069A1, “NEW CRYSTAL OF PIPERAZINE COMPOUND” (TAIHO PHARMACEUTICAL CO., LTD., priority 2015, published 2018)
